Reference: US12642860B2, “Filamentous nanostructures and their use for treatment of pulmonary disease” (THE JOHNS HOPKINS UNIVERSITY, priority 2019, dated 2026)
Non-standard residues stand in square brackets, D forms with d. Residues, ends and D or L forms follow the SMILES beside them. ξ: configuration not given here. *: point of attachment. X2 = CCCC1O[C@@H]2C[C@H]3[C@@H]4CCC5=CC(=O)C=C[C@]5(C)[C@H]4[C@@H](O)CC3(C)C2(C(=O)COC(=O)OCCS*)O1; Lauroyl = CCCCCCCCCCCC(=O)*; X1 = COCCOCCOCCOCCOCCC(=O)*; ξE = NC(CCC(=O)O)C(=O)O; ξQ = NC(=O)CCC(N)C(=O)O; ξD = NC(CC(=O)O)C(=O)O; ξL = CC(C)CC(N)C(=O)O; ξK = NCCCCC(N)C(=O)O; ξV = CC(C)C(N)C(=O)O; ξP = O=C(O)C1CCCN1

Legend:
Format in all cases: physicochemical
[1] = TEM morphology of filaments after jet nebulization; conditions: 500 μM, jet nebulization 10 min, mist and reservoir
Source text: (§1) Since the supramolecular filament compositions are several microns long and are formed through non-covalent interactions, their structural integrity may be influenced by a number of factors during nebulization, such as agitation and aerosol formation. Thus, we first assessed the structural stability of these systems while traveling in aerosol droplets generated by a jet nebulizer. Nebulizers are commonly employed medical devices for producing liquid aerosol droplets containing therapeutics via high velocity airflow through the device nozzle. Droplets very large in diameter impact baffles and/or the walls of the nebulizer and are recycled back into the device's reservoir, but droplets small enough to circumvent these barriers (typically ranging in diameter from 1 to 10 μm) exit the device as a respirable aerosol. Therefore, we characterized two groups of structures after nebulization: the exiting mist and the leftover solution in the reservoir. Filament compositions in solutions diluted down to 500 µM of the different PAs were loaded into a jet nebulizer and nebulized for 10 minutes, and the mist and leftover reservoir solutions were collected and subsequently analyzed with TEM. […] For both the nebulized and reservoir populations, we see the introduction of short bundled fibrils, worm-like micelles, and spherical micelles (spherical micelles depicted in FIG. 7).
After encapsulation, we used TEM imaging to confirm self-assembly of the system into filamentous nanostructures. […] Spherical micelles are still observed, but the fibril and worm-like structures are not. […] In terms of delivering therapeutics in an aerosol, this presents an effective strategy for improving structural stability of supramolecular peptide-based assemblies during nebulization.

[2] = Dynamic light scattering molar scattering rate during nebulization; conditions: measured every 2 min for 10 min nebulization
Method: We next investigated whether this filament breakdown was consistent over the course of a nebulization event. We measured the molar scattering rate of the filaments with dynamic light scattering (DLS) every 2 min for a total 10 min as a measure of assembly size, as larger filamentous assemblies will scatter light more strongly than smaller ones. The molar scattering rate represents the scattering rate normalized to the sample concentration and is used here, since the DLS software uses models for fitting spherical particles and our structures are anisotropic. […] In terms of delivering supramolecular filament systems with a jet nebulizer for treatment administration, the consistent filament breakdown over the course of a nebulization event is promising in regard to aerosol delivery, as the filaments are released reliably with a relatively uniform size drop over time from the device.

[3] = Contour length analysis of filaments in TEM images after jet nebulization; conditions: jet nebulization 10 min, mean±SD; for average contour length, exiting the nebulizer as a mist: nebulized mist population; for average contour length, leftover in the reservoir: reservoir population
Source text: FIGS. 12A-12F are contour length reduction analyses of (12A) EPA, (12B) OPA, and (12C) KPA filaments after nebulization, comparing the nebulized (red) and reservoir (blue) populations' size distributions (20 bins, 50 nm each). Nebulized populations measured shorter on average compared to the reservoir populations. Average contour lengths (μ) given as mean±SD alongside medians (M) for each population (****p<0.0001, two-tail unpaired t test; EPA: nN=316, nR=316; OPA: nN=311, nR=339; KPA: nN=377, nR=369). Dynamic light scattering measurements of (12D) EPA, (12E) OPA, and (12F) KPA over the course of a 10 min nebulization event as collected every 2 min, showing consistent filament breakdown over time. Data are normalized to molar scattering rate of filaments at t=0 min and given as mean±SD (p>0.05, two-way ANOVA, n=3).
as §1
Filaments before nebulization were not measured, as accurate contour lengths could not be determined, since the filaments are over several microns long. For all three systems, the nebulized population was measured to be on average shorter than its respective reservoir population. […] The EPA, OPA, and KPA filaments averaged around 287±147 nm, 174±103 nm, and 133±108 nm, respectively, exiting the nebulizer as a mist and around 360±177 nm, 206±88 nm, and 196±113 nm, respectively, leftover in the reservoir. For the KPA system, spherical micelles were omitted from this analysis as they bias the distribution representation toward non-filamentous structures.

[4] = Critical assembly concentration (CAC) by Nile Red assay; conditions: in water
Source text: FIGS. 17A-17C depict the critical assembly concentration (CAC) of (17A) EPA, (17B) OPA, and (17C) KPA molecules in water as measured from a Nile Red assay. A fluorescence intensity maximum is shifted from a wavelength of 660 nm to 635 nm as Nile Red dye becomes encapsulated within the supramolecular structures of the peptide amphiphiles (PAs). Blue line represents region of concentrations where Nile Red remains in solution; red line represents region where Nile Red is encapsulated. Data are given as mean±SD (n=3).
Therefore, we assessed the thermodynamic stability of each supramolecular filament system by measuring their critical assembly concentration (CAC) using a Nile Red assay. As shown in FIGS. 17A-C, the CAC values of EPA, OPA, and KPA were measured to be 1 μM, 1.9 μM, and 40 μM, respectively. Data from the Nile Red assay are given in full in FIG. 18. The differences in CAC between the different PAs are likely reflective of differences in electrostatic repulsion between the charged groups of EPA and KPA and steric effects with respect to the size of the OEG groups of the OPA molecule.^74 We find a direct correlation between the CAC value and nebulization stability of the supramolecular filaments with respect to nanostructure integrity and hydrogen bonding interactions. […] As the CAC value represents the propensity of the monomer units to aggregate in solution, increasing the strength of hydrophobic interactions alongside other non-covalent interactions through molecular engineering can result in lower CAC systems, and thus create supramolecular filament systems with enhanced stability during aerosol formation.

[5] = Circular dichroism of filaments before and after nebulization; conditions: for CD signal immediately after nebulization, mist / CD signal immediately after nebulization, reservoir: 500 μM, 10 min nebulization; for CD signal immediately after nebulization, mist: filaments collected in the mist; for CD signal immediately after nebulization, reservoir: filaments leftover in the reservoir; for CD signal 2 weeks after nebulization: same solutions aged additional 2 weeks at room temperature
Method: FIGS. 13A-13C show circular dichroism (CD) spectra of the supramolecular filament systems before and immediately after nebulization (solid lines) alongside the same solutions 2 weeks later (dashed lines). All filaments were nebulized at 500 µM for 10 min. Data given are mean spectra for each solution (n=3). (13A) EPA filaments before and after nebulization, showing preservation of β-sheet character during nebulization. (13B) OPA filaments before and after nebulization, showing retention of β-sheet character with a temporary increase in CD signal. (13C) KPA filaments before and after nebulization, showing a transition from β-sheet to random coil for the nebulization group and weakened β-sheet hydrogen bonding for the reservoir group.
While we were able to directly observe filament breakdown in terms of length, we investigated further the impact nebulization may have on the molecular packing of the PA monomers within the supramolecular filaments. FIG. 13 contains the representative circular dichroism (CD) spectra of the three filament systems before and after a 10 min nebulization event of both filaments that exit as mist and those leftover in the reservoir. EPA, OPA, and KPA filaments before nebulization show primarily β-sheet characteristic hydrogen bonding, as evidenced by a negative peak around 220 nm and a positive peak around 197 nm for each system. […] This slightly contrasts from the behavior observed for the EPA filaments and is likely attributed to the potential alignment of OEG chains of OPA from aerosol formation forces, which reduces steric repulsion between OPA monomers. […] This is corroborated by the morphologies observed for the KPA filaments after nebulization, as smaller worm-like micelles and spherical micelles were generated. The strength of the hydrogen-bonding network within the supramolecular filaments is evidently important in the maintenance and stabilization of β-sheet character after nebulization.
To gain insight into the thermodynamic stability of the new assembly states induced by nebulization, we analyzed the CD signal of the same filament solutions after nebulization after aging for an additional 2 weeks in solution at room temperature. […] Additionally, the shorter EPA and OPA filaments are still observed in the nebulized and reservoir groups with TEM imaging after 2 weeks (FIGS. 14 and 15). […] Since a transition back to β-sheet character is not observed for the nebulized group, it is likely that nebulization induces the formation of new metastable assemblies of the KPA monomers, which is corroborated by TEM images of the KPA filaments 2 weeks after nebulization, as the fibril, worm-like micelle, and spherical micelle structures are still observed (FIG. 16).

[6] = Loading capacity of drugs/dye within KPA filaments; conditions: encapsulated in KPA filaments, % by mass
Source text: FIGS. 20A-20C show (20A) the molecular structure of the lung disease-relevant drugs and fluorescent dye used in loading within the supramolecular filaments: paclitaxel (PTX, MW=853.92 g/mol), the anticancer drug; coumarin 6 (Cou6, MW=350.44 g/mol), the green fluorescent dye; and budesonide (BUD, MW=430.54 g/mol), the anti-inflammatory glucocorticoid used to treat symptoms of asthma and chronic obstructive pulmonary disease (top). (20B) The encapsulation process of hydrophobic drugs and dyes within supramolecular peptide amphiphile (PA)-based filaments, where dissolution of PA monomers and drug/dye in aqueous solutions results in their self-assembly with the drug/dye loaded within the hydrophobic core (left). The loading capacity of PTX, Cou6, and BUD based on mass (left axis, solid bars) and mole (right axis, checkered bars) percent within KPA supramolecular filaments (right). Data are given as mean±SD (n=5). (20C) Representative transmission electron microscopy (TEM) images of KPA filaments loaded with PTX (i, ii), Cou6 (iii, iv), and BUD (v, vi) before and after nebulization at 500 μM. Diameters are given as mean±SD (n=35).
With better insight into nebulization stability and the mechanism of supramolecular filament breakdown, we next sought to assess whether these systems can successfully carry drugs and dyes within aerosol droplets for potential inhalation-based therapies. […]

| SMILES | average contour length, exiting the nebulizer as a mist [3] | average contour length, leftover in the reservoir [3] | critical assembly concentration (CAC) [4] [µM] | CD signal immediately after nebulization, mist [5] | CD signal immediately after nebulization, reservoir [5] | CD signal 2 weeks after nebulization [5] | loading capacity by mass within KPA filaments [6] [%] | structure/morphology after nebulization (TEM) [1] | filament breakdown over time (molar scattering rate, DLS) [2] |
| --- | --- | --- | --- | --- | --- | --- | --- | --- | --- |
| CCCC1O[C@@H]2C[C@H]3[C@@H]4CCC5=CC(=O)C=C[C@]5(C)[C@H]4[C@@H](O)CC3(C)C2(C(=O)COC(=O)OCCSSC[C@H](NC(C)=O)C(=O)NC(C(=O)N[C@H](C(=O)NC(C(=O)NCC(=O)NCC(=O)NC(CCCCN)C(=O)NC(C(=O)NC(CC(C)C)C(=O)NC(CC(=O)O)C(=O)NCC(=O)NC(CCC(N)=O)C(=O)NC(CC(=O)O)C(=O)N2CCCC2C(N)=O)C(C)C)C(C)C)C(C)C)C(C)C)O1 (some centres unmarked) [CAB-0] (Ac-C(X2)[ξV]V[ξV]GG[ξK][ξV][ξL][ξD]G[ξQ][ξD][ξP]-NH2) |  |  |  |  |  |  |  | retention of filaments after a nebulization event with shortened length |  |
| CCCCCCCCCCCC(=O)N[C@@H](Cc1ccc(O)cc1)C(=O)NC(C(=O)N[C@H](C(=O)NC(C(=O)NCC(=O)NCC(=O)N[C@@H](CCC(=O)O)C(=O)NC(CCC(=O)O)C(=O)N[C@@H](CCC(=O)O)C(N)=O)C(C)C)C(C)C)C(C)C (some centres unmarked) [EPA] (Lauroyl-Y[ξV]V[ξV]GGE[ξE]E-NH2) | around 287±147 nm | around 360±177 nm | 1 | slightly increased β-sheet signal | no change to their hydrogen bonding | maintained their β-sheet character |  | maintained their filamentous structure but a notable reduction in length was observed | consistent breakdown over the course of 10 min |
| CCCCCCCCCCCC(=O)N[C@@H](Cc1ccc(O)cc1)C(=O)NC(C(=O)N[C@H](C(=O)NC(C(=O)NCC(=O)NCC(=O)N[C@@H](CCCCN)C(=O)NC(CCCCN)C(=O)N[C@@H](CCCCN)C(N)=O)C(C)C)C(C)C)C(C)C (some centres unmarked) [KPA] (Lauroyl-Y[ξV]V[ξV]GGK[ξK]K-NH2) | ~133±108 nm | ~196±113 nm | 40 | secondary structure transition from β-sheet to random coil character | weakened β-sheet signal | continued to display the weakened β-sheet signal in the reservoir group and the random coil character of the nebulized group |  | formation of different morphologies in both populations | consistent breakdown over the course of 10 min |

Second part, led by results:

| average contour length, exiting the nebulizer as a mist [3] | average contour length, leftover in the reservoir [3] | critical assembly concentration (CAC) [4] [µM] | CD signal immediately after nebulization, mist [5] | CD signal immediately after nebulization, reservoir [5] | CD signal 2 weeks after nebulization [5] | loading capacity by mass within KPA filaments [6] [%] | SMILES | structure/morphology after nebulization (TEM) [1] | filament breakdown over time (molar scattering rate, DLS) [2] |
| --- | --- | --- | --- | --- | --- | --- | --- | --- | --- |
| ~174±103 nm | ~206±88 nm | 1.9 | increased β-sheet signals | increased β-sheet signals | maintained their β-sheet character |  | CCCCCCCCCCCC(=O)N[C@@H](Cc1ccc(O)cc1)C(=O)NC(C(=O)N[C@H](C(=O)NC(C(=O)NCC(=O)NCC(=O)N[C@@H](CCCCNC(=O)CCOCCOCCOCCOCCOC)C(=O)NC(CCCCNC(=O)CCOCCOCCOCCOCCOC)C(N)=O)C(C)C)C(C)C)C(C)C (some centres unmarked) [OPA] (Lauroyl-Y[ξV]V[ξV]GGK(X1)[ξK](X1)-NH2) | shorter filaments are produced | consistent breakdown over the course of 10 min |
|  |  |  |  |  |  | 1.5 | CC(=O)O[C@H]1C(=O)[C@@]2(C)[C@H]([C@H](OC(=O)c3ccccc3)[C@]3(O)C[C@H](OC(=O)[C@H](O)[C@@H](NC(=O)c4ccccc4)c4ccccc4)C(C)=C1C3(C)C)[C@]1(OC(C)=O)CO[C@@H]1C[C@@H]2O [PTX, paclitaxel] |  |  |
